Measurements: patent US11802110B2, “2-amino-N-(arylsulfinyl)-acetamide compounds as inhibitors of bacterial aminoacyl-tRNA synthetase” (priority 2016, dated 2023)
Values after ≈ are worked out from the molar mass of the structure shown. Like-named read-outs stand apart in the source and are kept apart here.

What was measured:
[1] = Human cell viability (cytotoxicity), ATP levels by CellTiter-Glo; format: cell-based; details: HepG2 cells (ATCC HB-8065), 24 hours incubation, read-out: IC50 (μg/mL), Cytotoxicity in HepG2 ATCC HB-8065 Cell Line
Experimental: Compounds were assessed for potential non-specific cytotoxic effects against a human hepatic cell line (HepG2 ATCC HB-8065). 96-well plates were seeded with HepG2 cells in concentration of 15,000 cells per well in 100 μL of MEM growth media completed with 1% NEAA and 1% sodium pyruvate. Border wells were filled with 100 μL of sterile PBS. Two days upon cells incubation, the compounds were added. Compound dilutions were prepared in 96-well V-bottom plate in pure DMSO. Growth media from 5 plates were aspirated and replaced with 98.7 μL of fresh growth media. 1.28 μL of compounds prepared in V-bottom plates were transferred with multichannel pipette into test plates (78.1× dilution). Final DMSO concentration was 1.28% per well. In control wells, 1.28 μL of DMSO was added in 98.7 μL of media. Compounds were tested in duplicates. Cells were incubated with compounds for 24 hours when cell viability was assessed by measuring ATP levels. ATP levels were measured by adding 50 μL of CellTiter-Glo reagent to each well and after 5 minutes of incubation luminescence was measured with SpectraMax i3. The potential effect of tested compounds on cell viability was determined by comparing the signal obtained in presence of different concentrations of the compounds with those obtained in the presence of DMSO only. The potential effects were then calculated and presented as IC50 values (μg/mL).

[2] = tested on: Escherichia coli ATCC 25922 TolC deficient mutant (E. coli EFFLUX del); test: microbe, parasite or virus in culture; format: cell-based
Experimental: (§1) Minimum Inhibitory Concentrations (MICs) were determined by the broth micro-dilution method performed according to Clinical Laboratory Standards Institute guidelines. For testing, 5 mg/mL DMSO solutions were prepared by dissolving solids in DMSO. Standard antibiotics were prepared according to CLSI guidelines as 5 mg/mL stock solutions. Upon DMSO stock solutions preparation, the working solutions in MH media were prepared by adding 38.4 μL of stock solution to 1461.6 μL of MH media. Out of these working solutions 100 μL were transferred to wells in the third column of 96-well assay plates. Assay plates were previously filled with 50 μL of MH media in all wells except for the wells in the third column. Upon compounds and antibiotics addition, 50 μL was transferred from the third to the fourth column, then from the fourth to the fifth and so on.
(§2) MIC value was determined by visual inspection of bacterial growth within 96-well plates. The first column in which there was no visible growth of bacteria was determined as MIC value for compound or antibiotic tested in that particular row. ATCC strains were used as reference strains for which there is a determined value of MIC values for standard antibiotics. The assay is considered valid when MIC values for standard antibiotics are within CLSI designated range for ATCC strain tested.

[3] = tested on: Enterobacter cloacae B1966 clinical isolate; test: Study 4 - MIC by broth micro-dilution (CLSI); format: cell-based
Experimental: as §1, §2

[4] = tested on: Pseudomonas aeruginosa ATCC 27853; test: Study 4 - MIC by broth micro-dilution (CLSI); format: cell-based
Experimental: as §1, §2

[5] = tested on: Escherichia coli ATCC 25922; test: Study 4 - MIC by broth micro-dilution (CLSI); format: cell-based
Experimental: as §1, §2

[6] = tested on: Acinetobacter baumannii B1931 clinical isolate; test: Study 4 - MIC by broth micro-dilution (CLSI); format: cell-based
Experimental: as §1, §2

[7] = tested on: Haemophilus influenzae ATCC 49247; test: Study 4 - MIC by broth micro-dilution (CLSI); format: cell-based; details: G = H. influenzae ATCC 49247
Experimental: as §1, §2

[8] = tested on: Klebsiella pneumoniae ATCC 700603; test: Study 4 - MIC by broth micro-dilution (CLSI); format: cell-based
Experimental: as §1, §2

E. Coli LeuRS = E. Coli LeuRS (Escherichia coli (strain K12), UniProt P07813); test: Study 2 - Isothermal titration calorimetry (ITC); format: binding; details: 25° C., pH 7.5, mean ± SD
Sequence of E. Coli LeuRS (P07813 whole entry): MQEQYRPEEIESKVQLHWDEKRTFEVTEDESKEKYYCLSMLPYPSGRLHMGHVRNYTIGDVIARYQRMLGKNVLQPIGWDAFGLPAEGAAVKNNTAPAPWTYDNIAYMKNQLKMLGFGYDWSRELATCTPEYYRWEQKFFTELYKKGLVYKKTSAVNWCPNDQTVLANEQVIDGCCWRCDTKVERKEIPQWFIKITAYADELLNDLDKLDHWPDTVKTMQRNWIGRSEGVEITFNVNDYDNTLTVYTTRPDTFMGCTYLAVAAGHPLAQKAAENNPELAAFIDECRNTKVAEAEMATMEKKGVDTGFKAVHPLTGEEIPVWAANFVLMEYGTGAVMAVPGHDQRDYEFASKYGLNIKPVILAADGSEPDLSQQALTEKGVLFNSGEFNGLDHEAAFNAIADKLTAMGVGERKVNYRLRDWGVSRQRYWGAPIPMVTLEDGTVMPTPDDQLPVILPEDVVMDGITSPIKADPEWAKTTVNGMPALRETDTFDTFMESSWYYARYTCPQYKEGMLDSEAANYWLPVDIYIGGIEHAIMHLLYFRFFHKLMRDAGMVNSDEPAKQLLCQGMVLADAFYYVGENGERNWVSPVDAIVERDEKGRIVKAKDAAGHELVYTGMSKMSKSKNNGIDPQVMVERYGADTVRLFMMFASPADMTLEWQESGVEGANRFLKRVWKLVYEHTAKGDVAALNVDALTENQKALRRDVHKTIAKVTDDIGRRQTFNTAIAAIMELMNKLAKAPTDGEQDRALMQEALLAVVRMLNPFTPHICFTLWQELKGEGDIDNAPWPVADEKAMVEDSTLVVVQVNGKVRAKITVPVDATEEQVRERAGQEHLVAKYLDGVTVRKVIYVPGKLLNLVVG
Experimental: Escherichia coli BL21(DE3) cells transformed with plasmid pQE-60 containing the open-reading frame sequence of one targeted aaRS (i.e., LeuRS) were induced with 1 mM IPTG (isopropyl β-D-1-thiogalactopyranoside) for 3 hours at 37° C. Bacterial cells were harvested and lysed with 20 mM HEPES (4-(2-hydroxyethyl)-1-piperazinylethane-sulfonic acid) (pH 7.5), 300 mM NaCl, 15 mM imidazole and 1 mM DTT (1,4-dithio-D-threitol). The pathogenic aaRS was first purified by nickel affinity standard chromatography. The eluted protein was concentrated and then further purified by gel filtration using 50 mM HEPES (pH 7.5), 150 mM NaCl buffer.
ITC studies were carried out using a Microcal ITC200 instrument (GE Healthcare). Protein concentration was determined by spectrophotometry by measuring the absorbance at 280 nm using a theoretical molar extinction coefficient of 169,140 M^−1cm^−1. Ligand stock solutions were prepared in DMSO at 62.5 mM concentration. The titrations were performed at 25° C. with 7.5-100 μM E. Coli LeuRS in 50 mM HEPES, 150 mM NaCl, pH 7.5 buffer containing 1% DMSO (v/v). The protein solution in the 280 μL sample cell was titrated with the inhibitor solution (diluted to 75-3000 μM in the same buffer as the protein) using 1-2 μL injections every 120-140 seconds. All titrations were repeated at least two times. To correct for heats of dilution and mixing, the final baseline consisting of small peaks of identical size at the end of each experiment was subtracted. The experimental data were fitted to a theoretical titration curve (one site model) using MicroCal Origin 7 SR4 software.
Note that Compounds R-4.1 and S-4.1 (in Table 15, below) correspond to Compounds V-i and V-ii (in Tables 13 and 14, above), respectively.

[9] = Pseudomonas aeruginosa, ATCC27853
[10] = Haemophilus influenzae, ATCC49247, read-out: MIC
[11] = Klebsiella pneumoniae, ATCC700603

Structure (SMILES)	IC50 at 24 h [1] [µg/mL]	MIC ([2]; Escherichia coli, ATCC25922) [mg/L]	MIC ([3]; Enterobacter cloacae) [mg/L]	MIC [4, 9] [mg/L]	MIC ([5]; Escherichia coli, ATCC25922) [mg/L]	MIC ([6]; Acinetobacter baumannii) [mg/L]	MIC [7, 10] [mg/L]	MIC [8, 11] [mg/L]	Kd (E. Coli LeuRS) [nM]	ΔG (E. Coli LeuRS) [kJ/mol]	ΔH (E. Coli LeuRS) [kJ/mol]	MIC ([2]; B = E. coli EFFLUX del) [mg/L]	MIC ([3]; C = Enterobacter cloacae B1966) [mg/L]	MIC ([4]; E = P. aeruginosa ATCC 27853) [mg/L]	MIC ([5]; A = E. coli ATCC 25922) [mg/L]	MIC ([6]; F = A. baumannii B1931) [mg/L]	MIC [7] [mg/L]	MIC ([8]; D = KI. pneumoniae ATCC 700603) [mg/L]
CC(C)CC(N)C(=O)N[S+]([O-])c1cccc(-c2ccn(C)n2)c1 (stereo not drawn) [4.26]	> 64	64 (≈ 191 µM)	> 64	> 64	64 (≈ 191 µM)	> 64	> 64	> 64	–	–	–	–	–	–	–	–	–	–
CC(C)CC(N)C(=O)N[S+]([O-])c1ccccc1F (stereo not drawn) [4.31]	> 64	2 (≈ 7.34 µM)	4 (≈ 14.7 µM)	32 (≈ 117 µM)	2 (≈ 7.34 µM)	4 (≈ 14.7 µM)	8 (≈ 29.4 µM)	2 (≈ 7.34 µM)	6.78 ± 1.73	-46.65 ± 0.669	-54.27 ± 8.54	–	–	–	–	–	–	–
CC(C)CC(N)C(=O)N[S+]([O-])c1ccccc1Cl (stereo not drawn) [4.32]	> 64	8 (≈ 27.7 µM)	16 (≈ 55.4 µM)	> 64	4 (≈ 13.9 µM)	16 (≈ 55.4 µM)	32 (≈ 111 µM)	16 (≈ 55.4 µM)	4.61 ± 0.06	-47.57 ± 0.042	-44.43 ± 1.05	–	–	–	–	–	–	–
CC(C)CC(N)C(=O)N[S+]([O-])c1ccc(F)cc1 (stereo not drawn) [4.29]	> 64	16 (≈ 58.7 µM)	16 (≈ 58.7 µM)	> 64	8 (≈ 29.4 µM)	16 (≈ 58.7 µM)	32 (≈ 117 µM)	64 (≈ 235 µM)	9.14 ± 0.3	-45.86 ± 0.042	-45.81 ± 0.753	–	–	–	–	–	–	–
CC(C)(O/N=C(\C(=O)N[C@@H]1C(=O)N2C(C(=O)[O-])=C(C[n+]3ccccc3)CS[C@H]12)c1csc(N)n1)C(=O)O [Ceftazidime]	–	–	–	–	–	–	–	–	–	–	–	0.25 (≈ 0.457 µM)	0.5 (≈ 0.915 µM)	>64	0.25 (≈ 0.457 µM)	2 (≈ 3.66 µM)	16 (≈ 29.3 µM)	>64
CC(C)C[C@H](N)C(=O)N[S@+]([O-])c1cccc(Cl)c1 [R-4.12]	> 64	2 (≈ 6.93 µM)	8 (≈ 27.7 µM)	> 64	2 (≈ 6.93 µM)	32 (≈ 111 µM)	8 (≈ 27.7 µM)	32 (≈ 111 µM)	1.48 ± 0.08	-50.04 ± 0.502	-44.98 ± 4.44	–	–	–	–	–	–	–
CC(C)CC(N)C(=O)N[S+]([O-])c1cc(Cl)cc(Cl)c1 (stereo not drawn) [4.36]	44 (≈ 136 µM)	64 (≈ 198 µM)	> 64	> 64	64 (≈ 198 µM)	> 64	> 64	> 64	–	–	–	–	–	–	–	–	–	–
CC(C)CC(N)C(=O)N[S+]([O-])c1ccc(F)c(Cl)c1 (stereo not drawn) [4.37]	> 64	8 (≈ 26.1 µM)	64 (≈ 209 µM)	> 64	8 (≈ 26.1 µM)	64 (≈ 209 µM)	32 (≈ 104 µM)	> 64	–	–	–	–	–	–	–	–	–	–
